Measured values published in paper PMC8746574 (Molecules, 2022).
Read-outs that look alike come from different tables or passages of the source.

Columns and labels:
TZM-bl cells = assay: MTT cytotoxicity assay in TZM-bl cells; type: cell-based; details: MTT test
Method: (§1) The cytotoxicity of the obtained compounds was assessed in TZM-bl cells using the MTT test. The preparations were diluted with DMEM medium so that their starting concentration was 1000 μM and the final volume of DMSO was no more than 1%. Additionally, we compared the cytotoxicity of DMEM and medium with 1% DMSO in TZM-bl cells and found no significant differences in cell survival. […] A range of non-toxic concentrations was determined for each compound and used in subsequent experiments on their antiviral activity.
(§2) TZM-bl cells were seeded into 96-well culture plates (100 μL of cell suspension or 10^4 p cells per well) and placed in a CO2 incubator. The test compounds were dissolved in DMSO at a concentration of 100 mM. After 24 h of incubation, various concentrations of the test compounds (1000, 500, 250, 125, 62.5, 31.25, and 15.6 μM) were added by titration to the TZM-bl cell culture, in triplicates. DMSO was added to the control wells at a concentration of no more than 1%. The plates with the introduced drugs were incubated in a CO2 incubator at 37 °C under 5% CO2. After 72 h of incubation, 20 μL of MTT working solution (5 mg/mL) was added to each well and the plates were again incubated under the same conditions. After 2 h, the plates were removed from the CO2 incubator, and the medium in each well was replaced with DMSO solution (50 μL per well). The plates were shaken gently to dissolve the formazan crystals. The optical density of each well was determined at 570 nm using a Varioscan LUX plate reader (Thermo scientific). The survival rate of TZM-bl cells in the presence of the tested compounds was calculated using the formula: (OD of experimental wells—OD of medium)/(OD of control wells—OD of medium) × 100%, where OD is optical density.

[1] = MTT cytotoxicity assay in TZM-bl cells; type: cell-based; details: human; TZM-bl cells, MTT test, 72 h incubation
Method: as §1, §2

[2] = system: HIV-1 pseudotyped viruses; assay: Inhibitory activity against HIV-1 pseudoviruses in TZM-bl cells (summary statements); type: cell-based; details: neutralizing assays, SF162.LS, QH0692, 16RU28
Method: To evaluate the inhibitory activities of the synthesized compounds, HIV-1 pseudotyped viruses SF162.LS and […] subtype B (which are included in the international reference panel), and pseudotyped viruses of the recombinant form CRF63_02A—16RU28 HIV-1 were used. Genetic variant CRF63_02A is currently the dominant type in Siberia and is rapidly spreading in the rest of the Russian Federation.
The anti-HIV-1 activity of the tested compounds was performed using the TZM-bl assay, carried out in 96-well culture plates, as described previously. Briefly, serial 2-fold dilutions of the tested compounds were prepared in DMEM growth medium, 200 TCID50 pseudovirus were added to each well and incubated for 1 h at 37 °C under 5% CO2. Trypsinized TZM-bl cell suspension was then added (100 μL of 2 × 10^5 cells/mL) and plates were further incubated at 37 °C under 5% CO2. After 48 h, the luminescence signal was recorded using the luciferase assay system (Promega). The percent inhibition for each compound was calculated as the ratio between the relative luminescence unit (RLU) values of the test wells (sample + pseudovirus + cells) and the virus control (pseudovirus + cells). Samples were tested in triplicates, and the experiment was repeated twice.

[3] = system: SARS-CoV-2 (three strains); assay: Antiviral activity against three strains of SARS-CoV-2 on Vero E6 cells (summary statements)
in vitro = details: African green monkey
[4] = system: SARS-CoV-2 hCoV-19/Australia/VIC01/2020 (lineage B); assay: Reduction of cytopathic effect on Vero E6 cells, MTT, strain hCoV-19/Australia/VIC01/2020; type: cell-based
[5] = system: HIV-1 pseudotyped virus SF162.LS (subtype B); assay: TZM-bl neutralization assay with HIV-1 env-pseudovirus SF162.LS; type: cell-based; details: read-out: IC50 SF162.LS, TZM-bl cells, luciferase after 48 h
[6] = system: HIV-1 pseudotyped virus OH0692 (subtype B); assay: TZM-bl neutralization assay with HIV-1 env-pseudovirus OH0692; type: cell-based; details: read-out: IC50 OH0692; HIV-1 env-pseudovirus OH0692, TZM-bl cells, luciferase after 48 h
[7] = system: HIV-1 pseudotyped virus 16RU28 (recombinant form CRF63_02A); assay: TZM-bl neutralization assay with HIV-1 env-pseudovirus 16RU28; type: cell-based; details: read-out: IC50 16RU28; HIV-1 env-pseudovirus 16RU28 (CRF63_02A), TZM-bl cells, luciferase after 48 h

Row | Compound | toxicity against the TZM-bl cell line (in words) (TZM-bl cells) | CC50 at 72 h [1] [µM] | inhibitory activity against HIV-1 pseudotyped viruses (in words) [2] | antiviral activity against the three coronavirus strains (in words) [3] | cytotoxicity on Vero cells (in words) (Vero E6 cells) | CC50 (in vitro) [µM] | IC50 ([4]; Severe acute respiratory syndrome coronavirus 2, Vero C1008, 96 h, Vero E6 cells, 100 TCD50 per well, 4 days, MTT, lineage B, read-out: IC50 hCoV-19/Aust/VIC01/2020) [µM] | IC50 ([4]; Vero C1008, SARS-CoV 2 (B), SOFTmax PRO 4.0, primary data, read-out: parameter C of 4-parameter fit, activity curve) [µg/mL] | parameter C of 4-parameter fit, toxity curve (Vero E6 cells; SOFTmax PRO 4.0, primary data, plate with strain B) | CC50 at 4 days (in vitro; Vero E6 cells) [µM] | IC50 [5] [µM] | IC50 [6] [µM] | IC50 [7] [µM]
1 | CC1(C)[C@@H](O[C@H]2O[C@H](C(=O)O)[C@@H](O)[C@H](O)[C@H]2O[C@@H]2O[C@H](C(=O)O)[C@@H](O)[C@H](O)[C@H]2O)CC[C@]2(C)[C@H]3C(=O)C=C4[C@@H]5C[C@@](C)(C(=O)O)CC[C@]5(C)CC[C@@]4(C)[C@]3(C)CC[C@@H]12 [Glycyrrhizin] | negligible toxicity | > 1000 | did not exhibit any inhibitory activity | no antiviral activity | no cytotoxicity | > 1000 | – | – | – | – | – | – | –
2 | CC1(C)C2CC[C@]3(C)C(C(=O)C=C4[C@@H]5C[C@@](C)(C(=O)O)CC[C@]5(C)CC[C@]43C)[C@@]2(C)CC[C@@H]1OC(=O)c1cccnc1 (stereo partly shown) [Nic-GA, glycyrrhetinic acid nicotinate] | some cytotoxic activity | < 7.8 | lack of inhibition | did not exhibit any antiviral activity | less toxic to Vero cells than to Tzm-bl cells | 101 | – | – | – | – | – | – | –
3 | CCC(CC)COC(=O)[C@H](C)N[P@](=O)(OC[C@H]1O[C@@](C#N)(c2ccc3c(N)ncnn23)[C@H](O)[C@@H]1O)Oc1ccccc1 [Remdesivir] | – | – | – | – | – | – | 3.3 ± 0.12 | 2020 | 428,695 µg/ml | 711 ± 21.2 | – | – | –
4 | Maraviroc [MVC] | – | – | – | – | – | – | – | – | – | – | 0.002 | 0.002 | 0.0016
